Reference: patent US11485751B2, “Apramycin derivatives” (WAYNE STATE UNIVERSITY, priority 2017, dated 2022)
In brackets after ≈: the same amount, converted by molar mass.

Key:
AG032 P. aer. APH(3′)-II = test: Antibacterial activity, clinical isolate AG032; assay type: cell-based; design: unit not given here
Summary of the method: (§1)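 Clinical isolates tested by CLSI M07-A10 broth microdilution, with minimal inhibitory concentration as the read-out.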

[1] = test system: AG225, Acinetobacter baumannii pittii; test: MIC reference strain AG225; assay type: cell-based; settings: Acinetobacter baumannii, reference strain; read-out: MIC AG225 A. baumannii
Summary of the method: (§2)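 Broth microdilution per CLSI standard M07-A10 gave the minimal inhibitory concentrations.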

[2] = test system: AG220, Pseudomonas aeruginosa ATCC27853; test: MIC reference strain AG220; assay type: cell-based; settings: Pseudomonas aeruginosa, ATCC27853, reference strain ATCC27853; read-out: MIC AG220 P. aeruginosa
Summary of the method: as §2

AG038 MRSA = test: Antibacterial activity, clinical isolate AG038; assay type: cell-based; design: unit not given here
Summary of the method: as §1

AG055 E. coli WT = test: Antibacterial activity, clinical isolate AG055; assay type: cell-based; design: unit not given here
Summary of the method: as §1

bacterial ribosomes = test: in-vitro translation assay, bacterial ribosomes; assay type: biochemical
Summary of the method: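 Each ribosome preparation (bacterial, human chimeric as the mitochondrial model, rabbit reticulocyte as the cytosolic model) drives in-vitro translation with the test compound present. Inhibition of translation gives the IC50.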

[3] = test system: clinical isolates carrying APH(3′)-VI; test: MIC broth microdilution, APH(3′)-VI; assay type: cell-based; settings: IMM Univ. Zurich
Source text: (§3) Minimal inhibitory concentrations (MIC) have been determined by broth microdilution assays (CLSI. Methods for Dilution Antimicrobial Susceptibility Tests for Bacteria That Grow Aerobically; Approved Standard—Tenth Edition. CLSI document M07-A10. Wayne, Pa.: Clinical and Laboratory Standards Institute; 2015.).
(§4) Minimal inhibitory concentrations (MICs, […]) against clinical isolates from Institute of Medical Microbiology, Univ. Zurich, and the IC50 values for bacterial, human mitochondrial and human cytosolic ribosomes are indicated.

AG003 E. coli AAC(3)-II = test: Antibacterial activity, clinical isolate AG003; assay type: cell-based
Summary of the method: as §1

[4] = test system: APH(3′, 5″) resistance determinant; test: Susceptibility to the APH(3′, 5″) resistance determinant; assay type: cell-based
Source text: as §3
The introduction of a formamido group results in compounds that display increased selectivity for the bacterial ribosome over the mitochondrial (wild type and A1555G mutant) ribosomes, predictive of reduced ototoxicity.

[5] = test system: AG033 P. aer. APH(3′)-II AAC(6′)-I; test: Antibacterial activity, clinical isolate AG033; assay type: cell-based; design: unit not given here
Summary of the method: as §1

[6] = test system: Engineered E. coli pH427 rmtF; test: Activity against G1405-methylated 16S-rRNA, E. coli pH427 rmtF; assay type: cell-based
Summary of the method: (§5)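 Broth microdilution per CLSI M07-A10; readout MIC.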

[7] = test system: AG215, Klebsiella pneumonia; test: MIC reference strain AG215; assay type: cell-based; settings: Klebsiella pneumoniae, reference strain; read-out: MIC AG215 K. pneumonia
Summary of the method: as §2

[8] = test system: AG212, Escherichia coli ATCC25922; test: MIC reference strain AG212; assay type: cell-based; settings: Escherichia coli; reference strain ATCC25922; read-out: MIC AG212 E. coli
Summary of the method: as §2

[9] = test system: clinical isolates carrying AAC(3)-IV; test: MIC broth microdilution, AAC(3)-IV; assay type: cell-based; settings: for MIC: clinical isolates, IMM Univ. Zurich, AAC(3)-IV, read-out: MIC AAC(3)-IV
Summary of the method: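 Clinical isolates supplied by the Zurich Institute of Medical Microbiology were tested for MIC (μg/ml) using CLSI M07-A10 broth microdilution.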

[10] = test system: clinical isolates carrying APH(3′)-I; test: MIC broth microdilution, APH(3′)-I; assay type: cell-based; settings: IMM Univ. Zurich
Source text: as §3, §4

AG031 P. aer. APH(3′)-II = test: Antibacterial activity, clinical isolate AG031; assay type: cell-based; design: unit not given here
Summary of the method: as §1

[11] = test system: AG290, Enterobacter cloacae; test: MIC reference strain AG290; assay type: cell-based; settings: Enterobacter cloacae; reference strain; read-out: MIC AG290 E. cloacae
Summary of the method: as §2

[12] = test system: Engineered E. coli pH425 rmtB; test: Activity against G1405-methylated 16S-rRNA, E. coli pH425 rmtB; assay type: cell-based
Summary of the method: as §5

[13] = test system: AG042 MRSA AAC(6′)-I ANT(4′)-I APH(2′); test: Antibacterial activity, clinical isolate AG042; assay type: cell-based; design: unit not given here
Summary of the method: as §1

[14] = test system: Engineered E. coli pH430 WT; test: Activity, engineered E. coli pH430 WT; assay type: cell-based; settings: wild type
Summary of the method: as §5

AG001 E. coli WT = test: Antibacterial activity, clinical isolate AG001; assay type: cell-based; design: unit not given here
Summary of the method: as §1

[15] = test system: clinical isolates carrying APH(3′)-II; test: MIC broth microdilution, APH(3′)-II; assay type: cell-based; settings: clinical isolates, IMM Univ. Zurich; APH(3′)-II; read-out: MIC APH(3′)-II
Source text: as §3, §4

[16] = test system: Engineered E. coli pH424 armA; test: Activity against G1405-methylated 16S-rRNA, E. coli pH424 armA; assay type: cell-based
Summary of the method: as §5

[17] = test system: human mitochondrial ribosomes; test: in-vitro translation assay, human mitochondrial (human chimeric) ribosomes; assay type: biochemical
Summary of the method: (§6)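 Cell-free translation; IC50 read-out. Mito = human chimeric ribosomes; cytosolic = rabbit reticulocyte ribosomes; bacterial ribosomes run in the same assay format.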

[18] = test system: clinical isolates carrying APH(3′)-III; test: MIC broth microdilution, APH(3′)-III; assay type: cell-based; settings: IMM Univ. Zurich
Source text: as §3, §4

[19] = test system: Engineered E. coli AG103 armA; test: Activity against G1405-methylated 16S-rRNA, E. coli AG103 armA; assay type: cell-based
Summary of the method: as §5

AG173 E. coli AAC(3)-IV = test: Antibacterial activity, clinical isolate AG173; assay type: cell-based
Summary of the method: as §1

[20] = test system: AG039 MRSA AAC(6′)-I ANT(4′)-I; test: Antibacterial activity, clinical isolate AG039; assay type: cell-based
Summary of the method: as §1

AG163 E. coli APH(3′)-I = test: Antibacterial activity, clinical isolate AG163; assay type: cell-based
Summary of the method: as §1

[21] = test system: human cytosolic ribosomes; test: in-vitro translation assay, human cytosolic ribosomes; assay type: biochemical
Summary of the method: as §6

[22] = test system: Engineered E. coli pH426 rmtC; test: Activity against G1405-methylated 16S-rRNA, E. coli pH426 rmtC; assay type: cell-based
Summary of the method: as §5

[23] = test system: SZ380, Mycobacterium smegmatis; test: MIC reference strain SZ380; assay type: cell-based; settings: Mycolicibacterium smegmatis, reference strain; read-out: MIC SZ380 M. smegmatis
Summary of the method: as §2

ATCC19977 M. abcessus = test: MIC reference strain ATCC19977; assay type: cell-based; settings: read-out: MIC ATCC19977 M. abcessus
Summary of the method: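 Broth microdilution, CLSI dilution method for aerobic bacteria; read-out is minimal inhibitory concentration (MIC).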

Row | SMILES | Antibacterial activity AG032 P. aer. APH(3′)-II (AG032 P. aer. APH(3′)-II) | MIC [1] | MIC [2] | Antibacterial activity AG038 MRSA (AG038 MRSA) | Antibacterial activity AG055 E. coli WT (AG055 E. coli WT) | IC50 (bacterial ribosomes) | MIC [3] | Antibacterial activity AG003 E. coli AAC(3)-II (AG003 E. coli AAC(3)-II) | Antibacterial activity AG033 P. aer. APH(3′)-II AAC(6′)-I [5] | Activity E. coli pH427 rmtF [6] | MIC [7] | MIC [8] | MIC [9] | MIC [10] | Antibacterial activity AG031 P. aer. APH(3′)-II (AG031 P. aer. APH(3′)-II) | MIC [11] | Activity E. coli pH425 rmtB [12] | Antibacterial activity AG042 MRSA AAC(6′)-I ANT(4′)-I APH(2′) [13] | Activity E. coli pH430 WT [14] | Antibacterial activity AG001 E. coli WT (AG001 E. coli WT) | further results
1 | CNC1C(OC2OC(CO)C(N)C(O)C2O)OC2CC(N)C(OC3C(N)CC(N)C(O)C3OC3OC(CO)C(OC4OC(CN)C(O)C(O)C4N)C3O)OC2C1O (stereo not drawn) [DC138, 5-O-β-(Paromobiosyl) apramycin] | 64 | 4 µg/mL | 16 µg/mL | 2-4 | 8 | 100 nM | 4 µg/mL (≈ 4.81 µM) | 4 | 64 | 1 | 1 µg/mL | 2 µg/mL | > 32 µg/mL | 16 µg/mL (≈ 19.2 µM) | 32-64 | 2 µg/mL | 1 | 2 | 2 | 4 | susceptibility to the APH(3′, 5″) resistance determinant [4]: susceptible; activity against the IMM clinical isolates carrying the gene for AAC(3)-IV [9]: excellent antiribosomal and antibacterial activity; MIC [15]: 2 µg/mL (≈ 2.4 µM); Activity E. coli pH424 armA [16]: 1; IC50 [17]: 2.2 µM; MIC [18]: 1 to 2 µg/mL (≈ 1.2 to 2.4 µM); Activity E. coli AG103 armA [19]: <0.125; Antibacterial activity AG173 E. coli AAC(3)-IV (AG173 E. coli AAC(3)-IV): 1-2; Antibacterial activity AG039 MRSA AAC(6′)-I ANT(4′)-I [20]: 2-4; Antibacterial activity AG163 E. coli APH(3′)-I (AG163 E. coli APH(3′)-I): 8; IC50 [21]: 18 µM; Activity E. coli pH426 rmtC [22]: 1
2 | CNC1C(OC2OC(CO)C(N)C(O)C2O)OC2CC(N)C(OC3C(N)CC(N)C(O)C3OC3OC(CNC=O)C(O)C3O)OC2C1O [DC177, 5-O-β-(5′″-Formamido-5′″-deoxy-D-ribefuranosyl) apramycin] | >32 | 16 µg/mL | > 64 µg/mL | 32 | 16 | 230 nM | 8 µg/mL (≈ 11.4 µM) | 8 | >32 | 8 | 4 µg/mL | 8 µg/mL | > 32 µg/mL | 4 µg/mL (≈ 5.72 µM) | >32 | 8 µg/mL | 8 | 32 | 8 | 8 | MIC [23]: 2 µg/mL; MIC (ATCC19977 M. abcessus): 16 µg/mL (≈ 22.9 µM); MIC [15]: 8 µg/mL (≈ 11.4 µM); Activity E. coli pH424 armA [16]: 8; IC50 [17]: 399 µM; MIC [18]: 2 µg/mL (≈ 2.86 µM); Activity E. coli AG103 armA [19]: 2-4; Antibacterial activity AG173 E. coli AAC(3)-IV (AG173 E. coli AAC(3)-IV): >64; Antibacterial activity AG039 MRSA AAC(6′)-I ANT(4′)-I [20]: 16-32; Antibacterial activity AG163 E. coli APH(3′)-I (AG163 E. coli APH(3′)-I): 8; IC50 [21]: > 500 µM; Activity E. coli pH426 rmtC [22]: 16
3 | CNC1C(OC2OC(CO)C(N)C(O)C2O)OC2CC(N)C(OC3C(N)CC(N)C(O)C3OC3OC(CO)C(OCCO)C3O)OC2C1O [DC178, 5-O-β-[3′″-O-(2-Hydroxyethyl)-D-ribofuranosyl] apramycin] | >32 | 16 µg/mL | > 64 µg/mL | 16-32 | 16 | 220 nM | 16 µg/mL (≈ 22.4 µM) | 16 | >32 | 8 | 4 µg/mL | 8 µg/mL | > 32 µg/mL | > 64 µg/mL | >32 | 8 µg/mL | 8 | 32 | 8 | 32 | MIC [23]: 2 µg/mL; MIC (ATCC19977 M. abcessus): 32 µg/mL (≈ 44.7 µM); MIC [15]: 8 µg/mL (≈ 11.2 µM); Activity E. coli pH424 armA [16]: 2; IC50 [17]: 647 µM; MIC [18]: 2 µg/mL (≈ 2.79 µM); Activity E. coli AG103 armA [19]: 2; Antibacterial activity AG173 E. coli AAC(3)-IV (AG173 E. coli AAC(3)-IV): 32-64; Antibacterial activity AG039 MRSA AAC(6′)-I ANT(4′)-I [20]: 32; Antibacterial activity AG163 E. coli APH(3′)-I (AG163 E. coli APH(3′)-I): 8; IC50 [21]: > 500 µM; Activity E. coli pH426 rmtC [22]: 8
